# In the NIST ThermoML archive (doi:10.1021/je401120a):
# ± gives the expanded uncertainty stated by the source.
# What was measured:
# [1] = Liquid; for viscosity / electrical conductivity / speed of sound / mass density: 101 kPa; for electrical conductivity: Crison conductimeter (model GLP31); for speed of sound: Pulse-echo method; for mass density: Vibrating tube method; for vapor or sublimation pressure: Ebulliometric method (Recirculating still)
# [2] = refractive index (Na D-line) (dimensionless); details: 101.33 kPa, Liquid, Standard Abbe refractometry
# [3] = refractive index (Na D-line) (dimensionless); xn = mol fraction of the nth substance listed; details: 101 kPa, Liquid, Standard Abbe refractometry, x2 = 0
# [4] = xn = mol fraction of the nth substance listed; details: 101 kPa, Liquid, x2 = 0; for speed of sound: Pulse-echo method; for mass density: Vibrating tube method
viscosity ([1]; 293.15 K),speed of sound ([1]; 293.15 K),mass density ([1]; 293.15 K),viscosity ([1]; 303.15 K),speed of sound ([1]; 303.15 K),mass density ([1]; 303.15 K),viscosity ([1]; 313.15 K),speed of sound ([1]; 313.15 K),mass density ([1]; 313.15 K),viscosity ([1]; 323.15 K),speed of sound ([1]; 323.15 K),mass density ([1]; 323.15 K),refractive index ([2]; 293.15 K),refractive index ([2]; 303.15 K),refractive index ([2]; 313.15 K),refractive index ([2]; 323.15 K),further results,SMILES
160 ± 13 mPa·s,1653.9 ± 2.4 m/s,1256.67 ± 1.4 kg/m3,90.75 ± 3.8 mPa·s,1629.8 ± 2.4 m/s,1249.54 ± 1.4 kg/m3,56.02 ± 0.89 mPa·s,1606.3 ± 2.4 m/s,1242.43 ± 1.4 kg/m3,36.99 ± 0.76 mPa·s,1583.3 ± 2.3 m/s,1235.31 ± 1.4 kg/m3,1.44588 ± 0.00057,1.44322 ± 0.00057,1.44057 ± 0.00057,1.43792 ± 0.00057,electrical conductivity ([1]; 293.15 K): 0.302 ± 0.006 S/m; electrical conductivity ([1]; 303.15 K): 0.516 ± 0.01 S/m; electrical conductivity ([1]; 313.15 K): 0.799 ± 0.016 S/m; electrical conductivity ([1]; 323.15 K): 1.15 ± 0.023 S/m,CCC[n+]1ccccc1.F[B-](F)(F)F [1-propylpyridinium tetrafluoroborate]
–,–,–,–,–,–,–,–,–,–,–,–,–,–,–,–,refractive index ([3]; 293.15 K): 1.32843 ± 0.0004; refractive index ([3]; 303.15 K): 1.32433 ± 0.0004; refractive index ([3]; 313.15 K): 1.32015 ± 0.0004; refractive index ([3]; 323.15 K): 1.3167 ± 0.0004; speed of sound ([4]; 293.15 K): 1118.8 ± 1.1 m/s; mass density ([4]; 293.15 K): 791.243 ± 0.15 kg/m3; viscosity ([4]; 293.15 K): 0.5833 ± 0.016 mPa·s; speed of sound ([4]; 303.15 K): 1086 ± 1.1 m/s; mass density ([4]; 303.15 K): 781.813 ± 0.15 kg/m3; viscosity ([4]; 303.15 K): 0.507 ± 0.014 mPa·s; speed of sound ([4]; 313.15 K): 1053.5 ± 1.1 m/s; mass density ([4]; 313.15 K): 772.287 ± 0.15 kg/m3; viscosity ([4]; 313.15 K): 0.4438 ± 0.013 mPa·s; speed of sound ([4]; 323.15 K): 1021.5 ± 1.1 m/s; mass density ([4]; 323.15 K): 762.828 ± 0.15 kg/m3; viscosity ([4]; 323.15 K): 0.3873 ± 0.011 mPa·s,CO [methanol] + CCC[n+]1ccccc1.F[B-](F)(F)F
0.5833 ± 0.016 mPa·s,1118.8 ± 1.1 m/s,791.243 ± 0.15 kg/m3,0.507 ± 0.014 mPa·s,1086 ± 1.1 m/s,781.813 ± 0.15 kg/m3,0.4438 ± 0.013 mPa·s,1053.5 ± 1.1 m/s,772.287 ± 0.15 kg/m3,0.3873 ± 0.011 mPa·s,1021.5 ± 1.1 m/s,762.828 ± 0.15 kg/m3,1.32843 ± 0.0004,1.32433 ± 0.0004,1.32015 ± 0.0004,1.3167 ± 0.0004,vapor or sublimation pressure ([1]; 303.15 K): 21.93 ± 0.14 kPa; vapor or sublimation pressure ([1]; 323.15 K): 55.78 ± 0.27 kPa,CO [methanol]
